Data set [1] in a line: Retention time by reverse phase HPLC-UV chromatography. Format: physicochemical.
For data set [2], the system named is Liver microsome. Briefly: Drug metabolism in rat liver microsomes incubated with 10 uM ceratamine A for 60 mins assessed as metabolite level in presence of 1 mM NADPH at pH 7.4 and 37 degC by Quadrupole-time-of-flight mass spectrometry. Format: ADME. As to conditions: pH 7.4, 1 h. (In general: Microsomes from liver hold many membrane-bound enzymes, among them those of drug oxidation.)

Data set [3] concerns Liver microsome. As to the kind of experiment: Drug metabolism in rat liver microsomes incubated with 10 uM ceratamine B for 60 mins assessed as metabolite level in presence of 1 mM NADPH at pH 7.4 and 37 degC by Quadrupole-time-of-flight mass spectrometry. The settings on record: pH 7.4, 1 h. Format: ADME.
The subject of data set [4] is Liver microsome. Briefly: Drug metabolism in rat liver microsomes incubated with 10 uM ceratamine B for 60 mins assessed as metabolite formation in presence of 1 mM NADPH at pH 7.4 and 37 degC by reverse phase HPLC-UV chromatography. As to conditions: pH 7.4, 1 h. Format: ADME.
The subject of data set [5] is Liver microsome. As to the kind of experiment: Drug metabolism in rat liver microsomes incubated with 10 uM ceratamine A for 60 mins assessed as metabolite formation in presence of 1 mM NADPH at pH 7.4 and 37 degC by reverse phase HPLC-UV chromatography. As to conditions: pH 7.4, 1 h. Format: ADME.

This is an account of results in ChEMBL document CHEMBL3351870, “Structure elucidation of phase I metabolites of the microtubule perturbagens: ceratamines A and B” (J Nat Prod, 2014).

On to `CNc1nc2cc[nH]c(=O)c(Cc3cc(Br)c(O)c(Br)c3)c-2n1`, for which, in data set [1], the Retention_time amounted to 20.1 min. Further, the Drug metabolism entry in the data set with Liver microsome [2] and with Liver microsome [3] was “metabolite_detected” in each case.

In data set [1], `COc1c(Br)cc(Cc2c3nc(N)nc-3cc[nH]c2=O)cc1Br` came in with a Retention_time of 29.6 min. Moreover, the Drug metabolism result in the data set with Liver microsome [2] and in the data set on Liver microsome [3] was “metabolite_detected” throughout.

In the case of `CNc1nc2cc[nH]c(=O)c(Cc3cc(Br)c(OC)c(Br)c3)c-2n1`, the Drug metabolism result in the data set on Liver microsome [4] is listed as “metabolite_detected”.

On to `CNc1nc2ccn(C)c(=O)c(Cc3cc(Br)c(OC)c(Br)c3)c-2n1` [CERATAMINE A], for which the Drug metabolism result with Liver microsome [5] is “metabolite_detected”.
